According to US5683981A, “Cyclic bridged analogs of α-MSH and methods thereof” (Competitive Technologies, Inc., priority 1995, dated 1997):
Non-standard residues stand in square brackets, D forms with d. Residues, ends and D or L forms follow the SMILES beside them.

What was measured:
lizard skin = assay: Lizard skin assay: melanosome dispersion (skin darkening) in vitro; format: cell-based, Anolis carolinensis; conditions: tested in the range 10^-12 to 10^-9 M; compared to half-maximal effective dose of α-MSH (10^-9 M)
Procedure: (§1) The peptides described above were examined to determine the relative potencies of the peptides in respect to the stimulation of a melanosome dispersion in vitro using the frog (Rana pipiens) and the lizard (Anolis carolinensis) [see Science 213:1025 (1981)]. These assays are recognized by the scientific communitty to be a fairly accurate representation of results that would be expected when the test substances are administered to vertebrates in vivo; if activity is found when the test substances are tested in the frog skin assay and the lizard skin assay, similar activity would be expected if the test substances are administered to vertebrates, i.e, darkening in the two assays would indicate that darkening would also occur in vertebrates. These assays measure the amount of light reflected from the surface of the skins in vitro. In response to melanotropic peptides, melanosomes within integumental melanocytes migrate from a perinuclear position into the dendritic processes of the pigment cells. This centrifugal organellar dispersion results in a change of color (darkening) of the skins which is measured by a Photovolt reflectometer and is expressed as the percent response compared to the initial (time zero) reflectance value. | ^a = all peptide derivatives were tested in the range of 10^-12 t | 10^-9 M concentration; compared to the halfmaximal effective dose of | aMSH in the frog skin assay (10^-10 M), or in the lizard skin assay | (10^-9 M).

[1] = system: crude cell membranes of B-16 mouse melanoma cells; assay: Affinity of peptide to homogenized crude cell membranes (HPLC of supernatant and pellet extract); format: binding
Procedure: 0.3 μmole of peptide SHU-9002 was dissolved in 1 ml solution of homogenized crude cell membranes, obtained from about 0.6 million B-16 mouse melanoma cells, in phosphate buffer. After 5 hrs, the suspension was centrifuged at 10,000×g for 10 min. The pellet was saved and the supernatant subjected to HPLC on a C-18 column.
The pellet saved above was treated with DMSO-0.1% aq. TFA mixture (1:1), centrifuged as before and the supernatant subjected to HPLC as earlier.

frog skin = assay: Frog skin assay: melanosome dispersion (skin darkening) in vitro; format: cell-based, Rana pipiens; conditions: for Creeping potency (percentage skin darkening at a particular dose increases with time): frog skin bioassay; for Potencies Relative to α-MSH, Frog Skin Assay: tested in the range 10^-12 to 10^-9 M, compared to half-maximal effective dose of α-MSH (10^-10 M)
Procedure: as §1

| SMILES | Potencies Relative to α-MSH, Lizard Skin Assay (lizard skin) | Potencies Relative to α-MSH, Frog Skin Assay (frog skin) | further results |
| --- | --- | --- | --- |
| CCCC[C@H](NC(=O)[C@H](CO)NC(=O)[C@H](Cc1ccc(O)cc1)NC(=O)[C@H](CO)NC(C)=O)C(=O)N[C@H]1CCC(=O)N[C@@H](CCCNC(=N)N)C(=O)N[C@@H](CCCNC(=N)N)C(=O)NCCCC[C@@H](C(=O)N2CCC[C@H]2C(=O)N[C@H](C(N)=O)C(C)C)NC(=O)CNC(=O)[C@H](Cc2c[nH]c3ccccc23)NC(=O)[C@H](CCCNC(=N)N)NC(=O)[C@@H](Cc2ccccc2)NC(=O)[C@H](Cc2c[nH]cn2)NC1=O [SHU 9002] | 2 | 25 | Presence of peptide in supernatant after incubation with cell membranes (HPLC, C-18) ([1]; 0.3 μmole peptide in 1 ml membrane homogenate from about 0.6 million cells, phosphate buffer, 5 hrs, centrifuged 10,000×g 10 min): no evidence for the presence of the peptide SHU-9002 in the supernatant; Affinity to the cell membranes ([1]; conclusion from supernatant and pellet HPLC): marked affinity; Peptide recovered from membrane pellet (HPLC after DMSO-0.1% aq. TFA 1:1 treatment) ([1]; pellet of the 5 hrs incubation): elution pattern corresponding to the SHU-9002 was obtained; Creeping potency (percentage skin darkening at a particular dose increases with time) (frog skin): exhibited creeping potency |
| CCCC[C@H](NC(=O)[C@H](CO)NC(=O)[C@H](Cc1ccc(O)cc1)NC(=O)[C@H](CO)NC(C)=O)C(=O)N[C@H]1CCC(=O)N[C@@H](CCCCN)C(=O)N[C@@H](CCCCN)C(=O)NCCCC[C@@H](C(=O)N2CCC[C@H]2C(=O)N[C@H](C(N)=O)C(C)C)NC(=O)CNC(=O)[C@H](Cc2c[nH]c3ccccc23)NC(=O)[C@H](CCCNC(=N)N)NC(=O)[C@@H](Cc2ccccc2)NC(=O)[C@H](Cc2c[nH]cn2)NC1=O [SHU 9009] | 5 | 100 | – |
| CCCC[C@H](NC(=O)[C@H](CO)NC(=O)[C@H](Cc1ccc(O)cc1)NC(=O)[C@H](CO)NC(C)=O)C(=O)N[C@H]1CCC(=O)N[C@@H](CCCCN)C(=O)N[C@@H](CCCNC(=N)N)C(=O)NCCCC[C@@H](C(=O)N2CCC[C@H]2C(=O)N[C@H](C(N)=O)C(C)C)NC(=O)CNC(=O)[C@H](Cc2c[nH]c3ccccc23)NC(=O)[C@H](CCCNC(=N)N)NC(=O)[C@@H](Cc2ccccc2)NC(=O)[C@H](Cc2c[nH]cn2)NC1=O [SHU 9010] | – | 145 | Creeping potency (percentage skin darkening at a particular dose increases with time) (frog skin): exhibited creeping potency |
| CC(=O)N[C@@H](CO)C(=O)N[C@@H](Cc1ccc(O)cc1)C(=O)N[C@@H](CCCCN)C(=O)N[C@@H](CCCCN)C(=O)N[C@H]1CCC(=O)N[C@@H](CCCNC(=N)N)C(=O)N[C@@H](CCCCN)C(=O)NCCCC[C@@H](C(=O)N2CCC[C@H]2C(=O)N[C@H](C(N)=O)C(C)C)NC(=O)CNC(=O)[C@H](Cc2c[nH]c3ccccc23)NC(=O)[C@H](CCCNC(=N)N)NC(=O)[C@@H](Cc2ccccc2)NC(=O)[C@H](Cc2c[nH]cn2)NC1=O [SHU 9013] | 4 | 1 | – |
| CCCC[C@H](NC(=O)[C@H](CO)NC(=O)[C@H](Cc1ccc(O)cc1)NC(=O)[C@H](CO)NC(C)=O)C(=O)N[C@H]1CCC(=O)N[C@@H](CCCNC(=N)N)C(=O)N[C@@H](CCCCN)C(=O)NCCCC[C@@H](C(=O)N2CCC[C@H]2C(=O)N[C@H](C(N)=O)C(C)C)NC(=O)CNC(=O)[C@H](Cc2c[nH]c3ccccc23)NC(=O)[C@H](CCCNC(=N)N)NC(=O)[C@@H](Cc2ccccc2)NC(=O)[C@H](Cc2c[nH]cn2)NC1=O [SHU 9014] | 4 | 20 | – |
| CCCC[C@H](NC(C)=O)C(=O)N[C@H]1CC(=O)N[C@@H](CCCCN)C(=O)N[C@@H](CCCNC(=N)N)C(=O)NCCCC[C@@H](C(N)=O)NC(=O)[C@H](Cc2c[nH]c3ccccc23)NC(=O)[C@H](CCCNC(=N)N)NC(=O)[C@@H](Cc2ccccc2)NC(=O)[C@H](Cc2c[nH]cn2)NC1=O [SHU 9018] | 10 | 0.05 | – |
| CCCC[C@H](NC(C)=O)C(=O)N[C@H]1CC(=O)N[C@@H](CCCCN)C(=O)N[C@@H](CCCCN)C(=O)NCCCC[C@@H](C(N)=O)NC(=O)[C@H](Cc2c[nH]c3ccccc23)NC(=O)[C@H](CCCNC(=N)N)NC(=O)[C@@H](Cc2ccccc2)NC(=O)[C@H](Cc2c[nH]cn2)NC1=O [SHU 9019] | 12.5 | – | – |
| CCCC[C@H](NC(C)=O)C(=O)N[C@H]1CC(=O)N[C@@H](CCCNC(=N)N)C(=O)N[C@@H](CCCNC(=N)N)C(=O)NCCCC[C@@H](C(N)=O)NC(=O)[C@H](Cc2c[nH]c3ccccc23)NC(=O)[C@H](CCCNC(=N)N)NC(=O)[C@@H](Cc2ccccc2)NC(=O)[C@H](Cc2c[nH]cn2)NC1=O [SHU 9020] | 6.7 | 0.14 | – |
| CCCC[C@H](NC(C)=O)C(=O)N[C@H]1CC(=O)N[C@@H](CCCNC(=N)N)C(=O)N[C@@H](CCCCN)C(=O)NCCCC[C@@H](C(N)=O)NC(=O)[C@H](Cc2c[nH]c3ccccc23)NC(=O)[C@H](CCCNC(=N)N)NC(=O)[C@@H](Cc2ccccc2)NC(=O)[C@H](Cc2c[nH]cn2)NC1=O [SHU 9021] | 13.4 | 0.25 | – |
| CCCC[C@@H]1NC(=O)CC[C@H](NC(=O)[C@H](CCCC)NC(=O)[C@H](CO)NC(=O)[C@H](Cc2ccc(O)cc2)NC(=O)[C@H](CO)NC(C)=O)C(=O)N[C@@H](Cc2c[nH]cn2)C(=O)N[C@H](Cc2ccccc2)C(=O)N[C@@H](CCCNC(=N)N)C(=O)N[C@@H](Cc2c[nH]c3ccccc23)C(=O)NCC(=O)N[C@H](C(=O)N2CCC[C@H]2C(=O)N[C@H](C(N)=O)C(C)C)CCCCNC(=O)[C@H](CCCC)NC1=O [SHU 9026] | – | 7 | – |
| CC(=O)N[C@@H](CO)C(=O)N[C@@H](Cc1ccc(O)cc1)C(=O)N[C@@H](CCCCN)C(=O)N[C@@H](CCCCN)C(=O)N[C@@H](CCC(=O)O)C(=O)N[C@@H](Cc1c[nH]cn1)C(=O)N[C@H](Cc1ccccc1)C(=O)N[C@@H](CCCNC(=N)N)C(=O)N[C@@H](Cc1c[nH]c2ccccc12)C(=O)NCC(=O)N[C@@H](CCCCN)C(=O)N1CCC[C@H]1C(=O)N[C@H](C(N)=O)C(C)C [SHU 9027, Ac[Lys^3,4, DPhe^7]-α-MSH1-13NH2] (Ac-SYKKEH[dF]RWGKPV-NH2) | – | 0.4 | – |
| CCCC[C@H](NC(=O)[C@H](CO)NC(=O)[C@H](Cc1ccc(O)cc1)NC(=O)[C@H](CO)NC(C)=O)C(=O)N[C@H]1CCC(=O)NCCCC[C@@H](C(=O)N2CCC[C@H]2C(=O)N[C@H](C(N)=O)C(C)C)NC(=O)CNC(=O)[C@H](Cc2c[nH]c3ccccc23)NC(=O)[C@H](CCCNC(=N)N)NC(=O)[C@@H](Cc2ccccc2)NC(=O)[C@H](Cc2c[nH]cn2)NC1=O [SHU-9205] | – | 1.3 | – |
| CCCC[C@H](NC(=O)[C@H](CO)NC(=O)[C@H](Cc1ccc(O)cc1)NC(=O)[C@H](CO)NC(C)=O)C(=O)N[C@H]1CCC(=O)N[C@@H](CCC(=O)O)C(=O)N[C@@H](CCC(=O)O)C(=O)NCCCC[C@@H](C(=O)N2CCC[C@H]2C(=O)N[C@H](C(N)=O)C(C)C)NC(=O)CNC(=O)[C@H](Cc2c[nH]c3ccccc23)NC(=O)[C@H](CCCNC(=N)N)NC(=O)[C@@H](Cc2ccccc2)NC(=O)[C@H](Cc2c[nH]cn2)NC1=O [SHU-9207] | – | 1.3 | – |
| CCCC[C@H](NC(=O)[C@H](CO)NC(=O)[C@H](Cc1ccc(O)cc1)NC(=O)[C@H](CO)NC(C)=O)C(=O)N[C@H]1CCC(=O)N[C@@H](CO)C(=O)N[C@@H](CO)C(=O)NCCCC[C@@H](C(=O)N2CCC[C@H]2C(=O)N[C@H](C(N)=O)C(C)C)NC(=O)CNC(=O)[C@H](Cc2c[nH]c3ccccc23)NC(=O)[C@H](CCCNC(=N)N)NC(=O)[C@@H](Cc2ccccc2)NC(=O)[C@H](Cc2c[nH]cn2)NC1=O [SHU-9209] | – | 5 | – |
| CCCC[C@H](NC(=O)[C@H](CO)NC(=O)[C@H](Cc1ccc(O)cc1)NC(=O)[C@H](CO)NC(C)=O)C(=O)N[C@H]1CCC(=O)N[C@H](CCCCN)C(=O)N[C@H](CCCCN)C(=O)NCCCC[C@@H](C(=O)N2CCC[C@H]2C(=O)N[C@H](C(N)=O)C(C)C)NC(=O)CNC(=O)[C@H](Cc2c[nH]c3ccccc23)NC(=O)[C@H](CCCNC(=N)N)NC(=O)[C@@H](Cc2ccccc2)NC(=O)[C@H](Cc2c[nH]cn2)NC1=O [SHU-9210] | – | 3.5 | – |
